The source of these data is patent US9156796B2, “Benzoimidazole-carboxylic acid amide derivatives as APJ receptor modulators” (SANOFI, priority 2013, dated 2015).

SMILES strings stand for the structures. Read-outs that look alike come from different tables or passages of the source.

The target of the assay is T1, human apelin receptor (Homo sapiens, UniProt P35414).
T1 construct: expressed in transfected cells
T1 sequence (P35414 1-380): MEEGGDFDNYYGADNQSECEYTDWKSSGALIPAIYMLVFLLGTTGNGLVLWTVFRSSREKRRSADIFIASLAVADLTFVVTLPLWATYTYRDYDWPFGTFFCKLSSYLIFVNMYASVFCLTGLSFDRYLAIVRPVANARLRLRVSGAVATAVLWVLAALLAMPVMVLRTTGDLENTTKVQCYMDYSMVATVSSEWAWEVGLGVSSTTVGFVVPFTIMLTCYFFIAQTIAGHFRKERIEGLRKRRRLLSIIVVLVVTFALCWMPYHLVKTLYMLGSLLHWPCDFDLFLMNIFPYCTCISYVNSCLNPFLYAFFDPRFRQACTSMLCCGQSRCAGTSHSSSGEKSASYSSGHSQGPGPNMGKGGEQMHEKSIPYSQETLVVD
As to the kind of experiment: Determination of agonism on the human apelin receptor by a calcium fluorescence assay (FLIPR). As to conditions: HEK293 cells stably transfected with human apelin receptor and Giaq protein, Fluo-4 calcium fluorescence. Format: cell-based. An excerpt: Determination of Agonism on the Human Apelin Receptor by a Calcium Fluorescence Assay (FLIPR)
The assay is based on the detection of intracellular calcium changes detected by the selective, calcium-chelating dye Fluo-4 (Molecular Probes). A large fluorescence intensity increase is observed upon calcium association with Fluo-4. The dye is delivered to the cell interior using an acetoxymethylester form of Fluo-4, where the intracellular esterase activity results in the charged species being released and trapped within the cytoplasm of the cell. […] By co-expressing the human apelin receptor and a promiscuous Giaq protein, agonism of the apelin receptor couples to phospholipase-C resulting in intracellular calcium mobilization.
The HEK293 cells were stably transfected with the human apelin receptor and the Giaq protein. Cells were selected and maintained in a log phase of growth at 37° and 5% CO2 in the Iscove's minimal essential medium, 10% fetal calf serum, 1× Penicillin-Streptomycin, 400 μg/mL G418. One day prior the assay, cells were passaged by accutase and plated at a density of 50,000 cells/well onto a 96-well plates with black border but clear bottom (Costar, cat#3904) in a final volume of 200 μl growth medium.
In order to load the cells the next day with the calcium-sensitive dye, growth medium was carefully replaced by dye solution (100 μl/well) containing Fluo-4 (4 μM) in basic measurement buffer (135 mM NaCl, 5 mM KCl, 1 mM magnesium sulphate, 5 mM glucose, 20 mM Hepes, 2.5 mM probenecid; adjusted to pH 7.4). Cells were incubated for 1 h at 37° C., and then washed 3× with buffer containing no dye. The washer was programmed to leave a remaining volume of 150 μl after the third wash in the plate.
During the dye-loading of the cells, a serial compound dilution was performed in a separate 96-well plate with overall 4× increased concentrations. Small aliquots of DMSO stock solutions of the compounds (10 mM in 100% DMSO were aliquoted into 150 μl buffer in the first rows of the 96-well plates, and then serially diluted by a factor of 1:3 transferring each time 30 μl to the next rows already containing 60 μl buffer. All compounds were tested in a least 7 concentrations, each condition was performed in triplicates. As comparator, we used freshly prepared apelin-13 solutions, for which also a concentration-response curve was determined at each measurement day. The compound plate was incubated for 10 min after the final dilutions steps at 37° C. before transferring the dye-loaded cell plate and the compound plate into a FLIPR Tetra reader (Molecular Devices). Measurement within this reader started by pipetting the agonist solution (50 μl) on the cell plate. Overall perform 60 reads were performed with an interval of 2 sec. The maximum of the fluorescence transient was used to calculate the agonistic response of the cells. In order to normalize this response, which may vary from plate to plate we set the maximum fluorescence achieved by 1 μM apelin-13 on this plate as 100%.
EC-50 values for apelin-13 and the apelin receptor compounds described in this patent were determined by standard algorithms using a specific software package.

In general, EC50 refers to the concentration needed to bring the measured effect to its halfway point. In the case of `CCC(CC)n1c(Cc2cccs2)nc2cc(C(=O)N[C@@H](CC(C)C)C(=O)N[C@H]3C[C@H]4CC[C@@H](C3)N4C)ccc21` [Example 276, 1-(1-Ethyl-propyl)-2-thiophen-2-ylmethyl-1H-benzoimidazole-5-carboxylic acid [(S)-3-methyl-1-((3R)-8-methyl-8-aza-bicyclo[3.2.1]oct-3-ylcarbamoyl)-butyl]-amide], the EC50 (read-out: EC50 (APJ agonism)) worked out at 105 nM.

For the compound `CCC(CC)n1c(Cc2cccs2)nc2cc(C(=O)N[C@@H](CC(C)C)C(=O)N3CCC(N(C)CCN(C)C)CC3)ccc21` [Example 310, 1-(1-Ethyl-propyl)-2-thiophen-2-ylmethyl-1H-benzoimidazole-5-carboxylic acid ((S)-1-{4-[(2-dimethylamino-ethyl)-methyl-amino]-piperidine-1-carbonyl}-3-methyl-butyl)-amide], the EC50 (read-out: EC50 (APJ agonism)) amounted to 162 nM.

As for `CCC(CC)n1c(Cc2cccs2)nc2cc(C(=O)N[C@@H](CC(C)C)C(=O)N3CCC(N4CCc5ccccc5C4)CC3)ccc21` [Example 296, 1-(1-Ethyl-propyl)-2-thiophen-2-ylmethyl-1H-benzoimidazole-5-carboxylic acid {(S)-1-[4-(3,4-dihydro-1H-isoquinolin-2-yl)-piperidine-1-carbonyl]-3-methyl-butyl}-amide], for the setting “read-out: EC50 (APJ agonism)”, the EC50 turned out to be 1030 nM.

For the compound `CCC(CC)n1c(Cc2cccs2)nc2cc(C(=O)N[C@@H](CC(C)C)C(=O)NCC3CN(Cc4ccccc4)CCO3)ccc21` (stereo partly drawn) [Example 330, 1-(1-Ethyl-propyl)-2-thiophen-2-ylmethyl-1H-benzoimidazole-5-carboxylic acid {(S)-1-[(4-benzyl-morpholin-2-ylmethyl)-carbamoyl]-3-methyl-butyl}-amide], the EC50 (read-out: EC50 (APJ agonism)) stood at 2480 nM.

As for `CCCC[C@@H](CO)NC(=O)c1ccc2c(c1)nc(CC1CCCC1)n2C(CC)CC` [Example 184, 2-Cyclopentylmethyl-1-(1-ethyl-propyl)-1H-benzoimidazole-5-carboxylic acid ((S)-1-hydroxymethyl-pentyl)-amide], the EC50 (EC50 (APJ agonism)) was 2900 nM.

`CCC(CC)n1c(Cc2cccs2)nc2cc(C(=O)N[C@@H](CC(=O)O)CC(C)C)ccc21` [Example 48, (R)-3-{[1-(1-Ethyl-propyl)-2-thiophen-2-ylmethyl-1H-benzoimidazole-5-carbonyl]-amino}-5-methyl-hexanoic acid]: for the setting “read-out: EC50 (APJ agonism)”, the EC50 was determined as 4190 nM.

Regarding `CC(C)C[C@H](NC(=O)c1ccc2c(c1)nc(Cc1ccco1)n2C1CCCCC1C)C(=O)O` (stereo partly drawn) [Example 86, (S)-2-{[2-Furan-2-ylmethyl-1-(2-methyl-cyclohexyl)-1H-benzoimidazole-5-carbonyl]-amino}-4-methyl-pentanoic acid], the EC50 (read-out: EC50 (APJ agonism)) worked out at 88 nM.

With `CCC(CC)n1c(Cc2cccs2)nc2cc(C(=O)NC(CC(N)=O)CC(C)C)ccc21` (stereo not shown) [Example 174, 1-(1-Ethyl-propyl)-2-thiophen-2-ylmethyl-1H-benzoimidazole-5-carboxylic acid (1-carbamoylmethyl-3-methyl-butyl)-amide], the EC50 (read-out: EC50 (APJ agonism)) came out at 301 nM.

Consider `CCC(CC)n1c(Cc2cccs2)nc2cc(C(=O)N[C@@H](CC(C)C)C(=O)NCC3CN(CC(C)C)CCO3)ccc21` (stereo partly drawn) [Example 355, 1-(1-Ethyl-propyl)-2-thiophen-2-ylmethyl-1H-benzoimidazole-5-carboxylic acid {(S)-1-[(4-isobutyl-morpholin-2-ylmethyl)-carbamoyl]-3-methyl-butyl}-amide], for which, where the note is “read-out: EC50 (APJ agonism)”, the 50% effective concentration (EC50) was 1520 nM.

`CCC(CC)n1c(Cc2cccs2)nc2cc(C(=O)N[C@@H](CC(C)C)C(=O)NCCC3CCCCN3C)ccc21` (stereo partly drawn) [Example 289, 1-(1-Ethyl-propyl)-2-thiophen-2-ylmethyl-1H-benzoimidazole-5-carboxylic acid {(S)-3-methyl-1-[2-(1-methyl-piperidin-2-yl)-ethylcarbamoyl]-butyl}-amide]: the EC50 (read-out: EC50 (APJ agonism)) is 341 nM.

Take `CCC(CC)n1c(Cc2cccs2)nc2cc(C(=O)N[C@@H](CC(C)C)C(=O)N3CCC(OC(C)C)CC3)ccc21` [Example 375, 1-(1-Ethyl-propyl)-2-thiophen-2-ylmethyl-1H-benzoimidazole-5-carboxylic acid [(S)-1-(4-isopropoxy-piperidine-1-carbonyl)-3-methyl-butyl]-amide]: the EC50 (read-out: EC50 (APJ agonism)) turned out to be 2880 nM.

With `CCC(CC)n1c(Cc2cccs2)nc2cc(C(=O)N[C@@H](CC(C)C)C(=O)N3CCN(c4cccc(C(F)(F)F)c4)CC3)ccc21` [Example 269, 1-(1-Ethyl-propyl)-2-thiophen-2-ylmethyl-1H-benzoimidazole-5-carboxylic acid {(S)-3-methyl-1-[4-(3-trifluoromethyl-phenyl)-piperazine-1-carbonyl]-butyl}-amide], the concentration giving a half-maximal response (EC50) (read-out: EC50 (APJ agonism)) worked out at 18500 nM.

In the case of `CCC(CC)n1c(Cc2cccs2)nc2cc(C(=O)NC(CCC(F)(F)F)C(=O)O)ccc21` (stereo not shown) [Example 26, 2-{[1-(1-Ethyl-propyl)-2-thiophen-2-ylmethyl-1H-benzoimidazole-5-carbonyl]-amino}-5,5,5-trifluoro-pentanoic acid], the EC50 (read-out: EC50 (APJ agonism)) came out at 5300 nM.

For the compound `CC(C)C[C@H](NC(=O)c1ccc2c(c1)nc(Cc1ccoc1)n2C1CCCCC1C)C(=O)O` (stereo partly drawn) [Example 131, (S)-2-{[2-Furan-3-ylmethyl-1-(2-methyl-cyclohexyl)-1H-benzoimidazole-5-carbonyl]-amino}-4-methyl-pentanoic acid], for the setting “read-out: EC50 (APJ agonism)”, the EC50 was determined as 185 nM.

Take `CCC(CC)n1c(Cc2ccco2)nc2cc(C(=O)N[C@H](CC3CCCCC3)C(=O)O)ccc21` [Example 9, (R)-3-Cyclohexyl-2-{[1-(1-ethyl-propyl)-2-furan-2-ylmethyl-1H-benzoimidazole-5-carbonyl]-amino}-propionic acid]: the EC50 (read-out: EC50 (APJ agonism)) was determined as 585 nM.

As for `CCC(CC)n1c(Cc2cccs2)nc2cc(C(=O)NC(CC(C)C)c3nnc(C)o3)ccc21` (stereo not shown) [Example 481, 1-(1-Ethyl-propyl)-2-thiophen-2-ylmethyl-1H-benzoimidazole-5-carboxylic acid [3-methyl-1-(5-methyl-[1,3,4]oxadiazol-2-yl)-butyl]-amide], where the note is “read-out: EC50 (APJ agonism)”, the EC50 turned out to be 3480 nM.

As to `CCC(CC)n1c(Cc2cccs2)nc2cc(C(=O)NC(CC3CCCCCC3)C(=O)O)ccc21` (single isomer, unassigned) [Example 448], where the note is “read-out: EC50 (APJ agonism)”, the EC50 is 706 nM.

Turning to `CCC(CC)n1c(Cc2cccs2)nc2cc(C(=O)N[C@@H](CC(C)C)C(=O)NCC3CCN(CC(C)C)C3)ccc21` (stereo partly drawn) [Example 304, 1-(1-Ethyl-propyl)-2-thiophen-2-ylmethyl-1H-benzoimidazole-5-carboxylic acid {(S)-1-[(1-isobutyl-pyrrolidin-3-ylmethyl)-carbamoyl]-3-methyl-butyl}-amide], the EC50 (read-out: EC50 (APJ agonism)) is 461 nM.

Consider `CCC(CC)n1c(Cc2cccs2)nc2cc(C(=O)N[C@@H](CC(C)C)CS(=O)(=O)c3nnc[nH]3)ccc21` [Example 484, 1-(1-Ethyl-propyl)-2-thiophen-2-ylmethyl-1H-benzoimidazole-5-carboxylic acid [(S)-3-methyl-1-(4H-[1,2,4]triazole-3-sulfonylmethyl)-butyl]-amide], for which the EC50 (read-out: EC50 (APJ agonism)) came to 14 nM.

For the compound `CC(C)C[C@@H](CC(=O)O)NC(=O)c1ccc2c(c1)nc(Cc1cccs1)n2C1CCCCC1C` (single isomer, unassigned) [Example 439], the EC50 (read-out: EC50 (APJ agonism)) was found to be 662 nM.

On to `CCC(CC)n1c(CC2CCCC2)nc2cc(C(=O)N[C@H](CO)CC(C)C)ccc21` [Example 175, 2-Cyclopentylmethyl-1-(1-ethyl-propyl)-1H-benzoimidazole-5-carboxylic acid ((S)-1-hydroxymethyl-3-methyl-butyl)-amide], for which the EC50 (read-out: EC50 (APJ agonism)) came to 501 nM.

As to `C[C@@H]1CCCC[C@H]1n1c(Cc2cccs2)nc2cc(C(=O)NC(CC(=O)O)C3CCCCC3)ccc21` (single isomer, unassigned) [Example 463], for the setting “read-out: EC50 (APJ agonism)”, the EC50 was 2480 nM.
